Assays:
Assay type in all cases: functional, cell-based
Hs-578T = test: In vitro inhibition of estrogen receptor negative human breast cancer Hs 578.T cell proliferation
MCF7 = test: In vitro inhibition of estrogen receptor positive human breast cancer MCF-7 cell proliferation
ZR-75-1 = test: In vitro inhibition of estrogen receptor positive human breast cancer ZR-75-1 cell proliferation
MDA-MB-231 = test: In vitro inhibition of estrogen receptor negative human breast cancer MDA-MB-231 cell proliferation

Row | IC50 (MCF7) [µM] | IC50 (MDA-MB-231) [µM] | Substance | IC50 (Hs-578T) [µM] | IC50 (ZR-75-1) [µM]
1 | 16.7 | 12.7 | CISPLATIN | 9.1 | 9.3
2 | 4 | 4.7 | Cisplatin complex [listing 1 of 8 here] | 3.5 | 2.5
3 | 5.8 | 8.6 | Cisplatin complex [listing 2 of 8 here] | 2.7 | 4.2
4 | 4.3 | 4.8 | Cisplatin complex [listing 3 of 8 here] | 4.1 | 5
5 | > 40 | > 40 | Cisplatin complex [listing 4 of 8 here] | > 40 | 31.5
6 | 31.5 | 18.5 | Cisplatin complex [listing 5 of 8 here] | 28 | 16.4
7 | 20 |  | Cisplatin complex [listing 6 of 8 here] | 22.9 | 15.8
8 |  | 12.7 | Cisplatin complex [listing 7 of 8 here] | 17.3 | 14
9 | 13.4 | 9.2 | Cisplatin complex [listing 8 of 8 here] | 12.4 | 9.3

Reference: ChEMBL document CHEMBL1136347, “Synthesis of 17beta-estradiol platinum(II) complexes: biological evaluation on breast cancer cell lines” (Bioorg Med Chem Lett, 2003)
